Assay results as given in patent US20050049229A1, “Therapeutic applications of 2-hydroxyacetanilide” (priority 2003, published 2005).
Read-outs that look alike come from different tables or passages of the source. Marks after values point to notes of the source that are not given here.

Assays:
[1] = system: platelet aggregation induced by collagen, arachidonic acid (AA) and adenosine diphosphate (ADP); settings: Dupin et al.; cited from earlier work
[2] = system: carrageenan-induced rat-paw oedema; assay: carrageenan-induced rat paw oedema (plethysmographic method); type: in vivo; settings: for Mean paw volume ± SEM after 5 hr: 30 min before carrageenan; for Anti-inflammatory Activity Mean ± SEM: A−B/A×100 vs control, in %
Experimental: The plethysmographic method (Winter et al., Proc. Soc. Exp. Biol. Med. III, 1962, pp. 544-547) was then used for recording the volume changes in the rat paw. […] Another two groups received paracetamol at a dose of 300 or 500 mg kg^−1, and a further two groups received aspirin at a dose of 150 or 300 mg kg^−1, while the control group received saline or distilled water. […] The difference in paw volumes before and after the carrageenan injections indicated the volume of inflammation. Anti-inflammatory activities were calculated as A−B/A×100, where A and B denote mean paw volume of control and drug-treated animals respectively.

[3] = system: platelet aggregation induced by AA, PAF or collagen; assay: in vitro platelet aggregation in human platelet rich plasma; type: cell-based; settings: human PRP
Experimental: Blood was drawn by vein puncture from healthy human volunteers reported to be free of medications for at least one week. The blood samples were mixed with 3.8% w/v sodium citrate solution (9:1) and centrifuged at 260 g for 15 minutes at 20° C. to obtain platelet rich plasma (PRP). The platelet count was determined by phase contrast microscopy and all aggregation studies were carried out at 37° C. with PRP having platelet counts between 2.5 and 3.0×10^8/ml of plasma. All experiments were performed within 2 hours of PRP preparation.
Platelet aggregation was monitored using a Dual-channel Lumi-aggregometer (Model 400 Chronolog Corporation, Chicago, USA) using 0.45 ml aliquots of PRP. The final volume was made up to 0.5 ml with the test compound dissolved either in normal saline or an appropriate solvent known to be devoid of any effect on aggregation. Aggregation was induced by arachidonic acid (AA), platelet activating factor (PAF) or collagen.
Anti-platelet aggregation effects were studied by pretreatment of PRP with 2-hydroxyacetanilide or paracetamol for 1 minute followed by the addition of the maximum dose of agonist (i.e. AA, PAF or collagen). The resulting aggregation was monitored for 5 minutes following agonist addition by the change in light transmission as a function of time.
The results were expressed as percentage inhibition after the addition of aggregation agents compared with controls. Once the anti-platelet aggregation activity of the inhibitors against these agonists was established, dose-response curves were constructed to calculate the IC50 values of the inhibitors.

[4] = system: platelet aggregation induced by AA, PAF or collagen; assay: in vivo platelet aggregation (PRP from orally dosed rabbits); design: species or system rabbit; settings: Oryctolagus cuniculus, 500 mg/kg oral, blood 2 hours after
Experimental: Both 2-hydroxyacetanilide and paracetamol were tested for in vivo platelet aggregation activity at a dose of 500 mg kg^−1. The compounds were first separately dissolved in 0.5% w/v gum tragacanth and then administered orally to albino rabbits of either sex. Control groups received only the vehicle.
Blood was drawn from the marginal ear of the rabbits 2 hours after drug administration. The blood was then mixed with 3.8% w/v sodium citrate solution (9:1) and centrifuged at 260 g for 15 minutes at 20° C. to prepare platelet rich plasma (PRP). The platelet count was determined by phase contrast microscopy and all aggregation studies were carried out at 37° C. with PRP having platelet counts between 2.5 and […] /ml of plasma. The experiments were performed within 2 hours of PRP preparation.
Platelet aggregation was monitored using a Dual-Channel Lumi-aggregometer (Model 400 Chronolog Corporation, Chicago, USA) using 0.45 ml aliquots of PRP. Aggregation was induced with platelet activating factor (PAF, 0.8 μM), collagen (20 μg mL^−1) or arachidonic acid (AA, 1.7 mM).

PAF-induced mortality = assay: prevention of PAF-induced mortality in rabbits; type: in vivo, rabbit
Experimental: Male rabbits (New Zealand White, 3-3.5 kg) were used to test the ability of 2-hydroxyacetanilide, paracetamol and aspirin to prevent the lethality of intravenous PAF.
PAF was prepared before each injection by dissolution in saline to give a final concentration of 22 μg ml^−1. The resulting solution was injected into the marginal ear vein of the rabbits over a period of approximately 1 minute. In preliminary experiments it was established that an intravenous dose of 11 μg kg^−1 PAF was required to induce consistently fatal pulmonary thrombosis in the animals (n=6). This dose of PAF was used in subsequent experiments with 2-hydroxyacetanilide and paracetamol.
Rabbits were pretreated by intraperitoneal injection of either 2-hydroxyacetanilide (100 or 300 mg kg^−1), paracetamol (300 or 500 mg kg^−1) or aspirin (50 mg kg^−1) 2 hours before the challenging dose of PAF. Each animal was used for only one experiment.

[5] = system: acetic acid induced writhing; assay: acetic acid induced writhing test in mice; type: in vivo, mouse; settings: for No. of writhings: 30 min before 1% acetic acid IP, counted 10 minutes
Experimental: Analgesia was assessed by the method of Koster et al. (Federation Proceedings, 1959, 18, pp. 412-416), otherwise known as the acetic acid induced writhing test. When acetic acid is injected intraperitoneally it causes abdominal contractions or writhings, a syndrome characterized by a wave of contraction of the abdominal musculature followed by extension of hind limbs. By counting the number of writhes a measure of the effective analgesia provided can be obtained.
Male Wister mice (20-25 g) were divided into six groups, with five mice per group, for use in the writhing assay. The compounds 2-hydroxyacetanilide or paracetamol were administered orally 30 minutes prior to an intraperitoneal injection of 1% acetic acid. Immediately after administering the acetic acid, the number of writhings were counted and recorded for the subsequent 10 minutes. Analgesic potency was taken as difference between a test group mean and its control.

[6] = overdose, about twenty 500 mg tablets; cited from earlier work

Row | SMILES | in vitro inhibition of platelet aggregation [1] | Mean paw volume ± SEM after 5 hr ([2]; dose 300 mg/kg) [mL] | Anti-inflammatory Activity Mean ± SEM ([2]; dose 300 mg/kg) | Mean paw volume ± SEM after 5 hr ([2]; dose 500 mg/kg) [mL] | Anti-inflammatory Activity Mean ± SEM ([2]; dose 500 mg/kg) | IC50 ([3]; aggregation agent AA, read-out: IC50 ± SEM, platelet aggregation induced by AA) [µM] | IC50 ([3]; aggregation agent PAF, read-out: IC50 ± SEM, platelet aggregation induced by PAF) [µM] | IC50 ([3]; aggregation agent collagen, read-out: IC50 ± SEM, platelet aggregation induced by Collagen) [µM] | inhibition at 500 mg/kg ([4]; AA 1.7 mM, read-out: % inhibition of in vivo platelet aggregation induced by AA) [%] | inhibition at 500 mg/kg ([4]; PAF 0.8 μM, read-out: % inhibition of in vivo platelet aggregation induced by PAF) [%] | Survival (PAF-induced mortality; 300 mg/kg IP 2 hours before PAF 11 μg/kg IV) | Survival (PAF-induced mortality; 500 mg/kg IP 2 hours before PAF 11 μg/kg IV) | No. of writhings ([5]; 300 mg/kg oral) | No. of writhings ([5]; 500 mg/kg oral) | inhibition at 300 mg/kg ([5]; Mus musculus, 300 mg/kg oral) [%] | inhibition at 500 mg/kg ([5]; Mus musculus, 500 mg/kg oral) [%] | dose that may cause hepatocellular necrosis [6] [g] | Mean paw volume ± SEM after 5 hr ([2]; dose 150 mg/kg) [mL] | Anti-inflammatory Activity Mean ± SEM ([2]; dose 150 mg/kg) | Survival (PAF-induced mortality; 50 mg/kg IP 2 hours before PAF 11 μg/kg IV)
1 | CC(=O)Nc1cccc(O)c1 [3-hydroxyacetanilide] | comparable in vitro inhibition |  |  |  |  |  |  |  |  |  |  |  |  |  |  |  |  |  |  | 
2 | CC(=O)Nc1ccc(O)cc1 [Paracetamol, 4-hydroxyacetanilide] |  | 0.75 ± 0.06 | 6 ± 2 | 0.72 ± 0.07 | 10 ± 3 | 136 ± 1 | 167 ± 8 | 263 ± 1 | 5 ± 3 | 8 ± 2 | 0/10 | 2/10 | 20 | 3.2 | 33 | 89 | ≥ 10 |  |  | 
3 | CC(=O)Oc1ccccc1C(=O)O [Aspirin] |  |  |  | 0.23 ± 0.03 | 71 ± 3 |  |  |  |  |  |  |  |  |  |  |  |  | 0.58 ± 0.08 | 28 ± 9 | 7/10*
